Measured values published in ChEMBL document CHEMBL1201862, “PubChem BioAssay data set” (2004).
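Exposure lasted 48 hours, with cells grown in 96-well plates and compounds tested at five concentrations. GI50 = concentration required for 50% inhibition of growth.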 Activity calls are given as the source filed them. Rule as the data show it: active = GI50 up to about 1.1 µM and inactive = higher.

Legend:
Assay in all cases: NCI tumour cell line growth inhibition, 48 h
HCT-15 = test system: HCT-15
HT-29 = test system: HT-29
U-251 = test system: U-251
UO-31 = test system: UO-31
KM12 = test system: KM12
COLO 205 = test system: COLO 205
SK-MEL-5 = test system: SK-MEL-5
OVCAR-3 = test system: OVCAR-3
SF-295 = test system: SF-295
MDA-MB-231 = test system: MDA-MB-231
LOX IMVI = test system: LOX IMVI
PC-3 = test system: PC-3
HOP-62 = test system: HOP-62
TK-10 = test system: TK-10
RPMI-8226 = test system: RPMI-8226
IGROV-1 = test system: IGROV-1
DU-145 = test system: DU-145
OVCAR-4 = test system: OVCAR-4
RXF 393 = test system: RXF 393
NCI-H226 = test system: NCI-H226
ACHN = test system: ACHN
SW-620 = test system: SW-620
SNB-19 = test system: SNB-19
MOLT-4 = test system: MOLT-4
M14 = test system: M14
SK-OV-3 = test system: SK-OV-3
OVCAR-5 = test system: OVCAR-5
Malme-3M = test system: Malme-3M
BT-549 = test system: BT-549
SF-268 = test system: SF-268
MDA-N = test system: MDA-N
HOP-92 = test system: HOP-92
Hs-578T = test system: Hs-578T
MCF7 = test system: MCF7
SNB-75 = test system: SNB-75
NCI-H23 = test system: NCI-H23
HCC 2998 = test system: HCC 2998
SK-MEL-2 = test system: SK-MEL-2
NCI/ADR-RES = test system: NCI/ADR-RES
SK-MEL-28 = test system: SK-MEL-28
CAKI-1 = test system: CAKI-1
EKVX = test system: EKVX
SR = test system: SR
UACC-257 = test system: UACC-257
MDA-MB-435 = test system: MDA-MB-435
OVCAR-8 = test system: OVCAR-8
HCT-116 = test system: HCT-116
786-0 = test system: 786-0
HL-60 = test system: HL-60
UACC-62 = test system: UACC-62
NCI-H460 = test system: NCI-H460
K562 = test system: K562
SN12C = test system: SN12C
T47D = test system: T47D
CCRF-CEM = test system: CCRF-CEM
NCI-H522 = test system: NCI-H522
A549 = test system: A549
A498 = test system: A498
SF-539 = test system: SF-539

CC1=NN(c2cccc(S(=O)(=O)O)c2)C2(C1)C(Cl)C(=O)N2c1nc2ccccc2s1 (stereo unspecified)
GI50 (HCT-15): 4.04 µM | GI50 (HT-29): 7.98 µM (inactive) | GI50 (U-251): 5.85 µM (inactive) | GI50 (UO-31): 3.55 µM (inactive) | GI50 (KM12): 9.23 µM (inactive) | GI50 (COLO 205): 8.3 µM (inactive) | GI50 (SK-MEL-5): 6.17 µM (inactive) | GI50 (OVCAR-3): 2.94 µM (inactive) | GI50 (SF-295): 13.8 µM (inactive) | GI50 (MDA-MB-231): 8.73 µM (inactive) | GI50 (LOX IMVI): 1.25 µM (inactive) | GI50 (PC-3): 10.5 µM (inactive) | GI50 (HOP-62): 5.75 µM (inactive) | GI50 (TK-10): 14.2 µM (inactive) | GI50 (RPMI-8226): 1.83 µM (inactive) | GI50 (IGROV-1): 1.66 µM (inactive) | GI50 (DU-145): 11.3 µM (inactive) | GI50 (OVCAR-4): 4.74 µM (inactive) | GI50 (RXF 393): 8.28 µM (inactive) | GI50 (NCI-H226): 5.82 µM (inactive) | GI50 (ACHN): 6.81 µM (inactive) | GI50 (SW-620): 4.54 µM (inactive) | GI50 (SNB-19): 11.2 µM (inactive) | GI50 (MOLT-4): 2.88 µM (inactive) | GI50 (M14): 8.65 µM (inactive) | GI50 (SK-OV-3): 11.2 µM (inactive) | GI50 (OVCAR-5): 13.4 µM (inactive) | GI50 (Malme-3M): 5.83 µM (inactive) | GI50 (BT-549): 5.5 µM (inactive) | GI50 (SF-268): 7.87 µM (inactive) | GI50 (MDA-N): 13.1 µM (inactive) | GI50 (HOP-92): 2.57 µM (inactive) | GI50 (Hs-578T): 11.7 µM (inactive) | GI50 (MCF7): 8.89 µM (inactive) | GI50 (SNB-75): 4.05 µM (inactive) | GI50 (NCI-H23): 4.61 µM (inactive) | GI50 (HCC 2998): 15.1 µM (inactive) | GI50 (SK-MEL-2): 4 µM (inactive) | GI50 (NCI/ADR-RES): 4.99 µM (inactive) | GI50 (SK-MEL-28): 15.7 µM (inactive) | GI50 (CAKI-1): 2.9 µM (inactive) | GI50 (EKVX): 8.53 µM (inactive) | GI50 (SR): 7.08 µM (inactive) | GI50 (UACC-257): 13.6 µM (inactive) | GI50 (MDA-MB-435): 6.85 µM (inactive) | GI50 (OVCAR-8): 5.65 µM (inactive) | GI50 (HCT-116): 6.47 µM (inactive) | GI50 (786-0): 5.56 µM (inactive) | GI50 (HL-60): 2.61 µM (inactive) | GI50 (UACC-62): 6.81 µM (inactive) | GI50 (NCI-H460): 9.62 µM (inactive) | GI50 (K562): 3.86 µM (inactive) | GI50 (SN12C): 5.37 µM (inactive) | GI50 (T47D): 9.35 µM (inactive) | GI50 (CCRF-CEM): 1.26 µM (inactive) | GI50 (NCI-H522): 1.81 µM (inactive) | GI50 (A549): 8.61 µM (inactive) | GI50 (A498): 18.2 µM (inactive)

N#Cc1ccnc(C(=O)N2CCCC2C(=O)O)c1 (stereo unspecified)
GI50 (HCT-15): > 100 µM | GI50 (HT-29): > 100 µM (inactive) | GI50 (U-251): > 100 µM (inactive) | GI50 (UO-31): > 100 µM (inactive) | GI50 (KM12): > 100 µM (inactive) | GI50 (COLO 205): > 100 µM (inactive) | GI50 (SK-MEL-5): > 100 µM (inactive) | GI50 (OVCAR-3): > 100 µM (inactive) | GI50 (SF-295): > 100 µM (inactive) | GI50 (MDA-MB-231): > 100 µM (inactive) | GI50 (LOX IMVI): > 100 µM (inactive) | GI50 (PC-3): > 100 µM (inactive) | GI50 (HOP-62): > 100 µM (inactive) | GI50 (TK-10): > 100 µM (inactive) | GI50 (RPMI-8226): > 100 µM (inactive) | GI50 (IGROV-1): > 100 µM (inactive) | GI50 (DU-145): > 100 µM (inactive) | GI50 (OVCAR-4): > 100 µM (inactive) | GI50 (RXF 393): > 100 µM (inactive) | GI50 (NCI-H226): > 100 µM (inactive) | GI50 (ACHN): > 100 µM (inactive) | GI50 (SW-620): > 100 µM (inactive) | GI50 (SNB-19): > 100 µM (inactive) | GI50 (MOLT-4): > 100 µM (inactive) | GI50 (M14): > 100 µM (inactive) | GI50 (OVCAR-5): > 100 µM (inactive) | GI50 (Malme-3M): > 100 µM (inactive) | GI50 (BT-549): > 100 µM (inactive) | GI50 (SF-268): > 100 µM (inactive) | GI50 (MDA-N): > 100 µM (inactive) | GI50 (HOP-92): > 100 µM (inactive) | GI50 (Hs-578T): > 100 µM (inactive) | GI50 (MCF7): > 100 µM (inactive) | GI50 (SNB-75): > 100 µM (inactive) | GI50 (NCI-H23): > 100 µM (inactive) | GI50 (HCC 2998): > 100 µM (inactive) | GI50 (SK-MEL-2): > 100 µM (inactive) | GI50 (NCI/ADR-RES): > 100 µM (inactive) | GI50 (SF-539): > 100 µM (inactive) | GI50 (SK-MEL-28): > 100 µM (inactive) | GI50 (CAKI-1): > 100 µM (inactive) | GI50 (EKVX): > 100 µM (inactive) | GI50 (SR): > 100 µM (inactive) | GI50 (UACC-257): > 100 µM (inactive) | GI50 (MDA-MB-435): > 100 µM (inactive) | GI50 (OVCAR-8): > 100 µM (inactive) | GI50 (HCT-116): > 100 µM (inactive) | GI50 (786-0): > 100 µM (inactive) | GI50 (HL-60): > 100 µM (inactive) | GI50 (UACC-62): > 100 µM (inactive) | GI50 (NCI-H460): > 100 µM (inactive) | GI50 (K562): > 82.8 µM (inactive) | GI50 (SN12C): > 100 µM (inactive) | GI50 (T47D): > 100 µM (inactive) | GI50 (CCRF-CEM): > 100 µM (inactive) | GI50 (NCI-H522): > 100 µM (inactive) | GI50 (A549): > 100 µM (inactive) | GI50 (A498): > 100 µM (inactive)
